The values that follow come from ChEMBL document CHEMBL1201862, “PubChem BioAssay data set” (2004).

Among the test systems are KM12; SN12C; UACC-62; HCT-116; UO-31; HL-60; HCT-15; SF-268; SK-MEL-5; MOLT-4; COLO 205; NCI-H522; MCF7; HCC 2998; OVCAR-3; ACHN; CAKI-1; RXF 393; RPMI-8226; A498.
Experiment in all cases: NCI tumour cell line growth inhibition, 48 h

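96-well plates; 48 h exposure; 5 concentrations. Endpoints by linear interpolation between flanking doses. Not reached: highest tested concentration assigned. GI50 = concentration required for 50% inhibition of growth.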 Activity calls are given as the source filed them. Cut-off read from the data, not from the text of the source: active = GI50 up to about 1.1 µM and inactive = higher. Bounds are passed on as bounds.

For `CC(=O)NC1CC(C(C)(C)NC(C)=O)CC=C1C` (stereo not given), the GI50 in the assay with KM12, in the assay on SN12C, in the assay with UACC-62, with HCT-116, with UO-31 and with HL-60 was > 100 µM (inactive) throughout. Moreover, the GI50 with HCT-15 was greater than 100 µM; in the assay on SF-268 it was > 100 µM (inactive); with SK-MEL-5, > 100 µM (inactive); in the assay with MOLT-4 it was > 100 µM (inactive); with COLO 205, > 100 µM (inactive); in the assay on NCI-H522, > 100 µM (inactive). Also, the GI50 in the assay on MCF7, in the assay with HCC 2998 and with OVCAR-3 was > 100 µM (inactive) in each case.
Consider `O=C1C(=CNC(=S)c2ccccc2)C(=O)c2ccccc21`, for which the GI50 in the assay with KM12 was 62.1 µM (inactive); with SN12C, 46.7 µM (inactive); with UACC-62, 28.8 µM (inactive); in the assay on HCT-116, 46.7 µM (inactive); with UO-31 it was 25.8 µM (inactive); with ACHN, 38.9 µM (inactive). Besides, the GI50 was 4.28 µM (inactive) in the assay on HL-60; 32.1 µM in the assay on HCT-15; 71.8 µM (inactive) with SF-268; 58.9 µM (inactive) in the assay with SK-MEL-5; 27.5 µM (inactive) with MOLT-4; 69.7 µM (inactive) in the assay with COLO 205. Also, the GI50 with NCI-H522 is 21 µM (inactive); in the assay on MCF7 it was 35.2 µM (inactive); in the assay on CAKI-1 it was 71.4 µM (inactive); in the assay on HCC 2998, 37 µM (inactive); with RXF 393, 46.7 µM (inactive); in the assay with OVCAR-3 it was 76 µM (inactive). For the same compound, the GI50 in the assay on RPMI-8226 is 25.2 µM (inactive).
Take `O=C1C=CC2(O[C@@H](Cc3ccccc3)[C@H](Cc3ccccc3)O2)C(SC(=O)c2ccccc2)C1` (stereo not given in full): the GI50 was 2.31 µM (inactive) in the assay on KM12; 1.62 µM (inactive) with SN12C; 2.24 µM (inactive) with UACC-62; 0.158 µM (active) in the assay with HCT-116; 4.93 µM (inactive) with A498; 0.586 µM (active) in the assay on UO-31. For the same compound, the GI50 is 0.929 µM (active) in the assay on ACHN; 1.18 µM (inactive) with HL-60; 0.298 µM with HCT-15; 0.904 µM (active) in the assay with SF-268; 1.66 µM (inactive) in the assay on SK-MEL-5; 0.19 µM (active) in the assay on MOLT-4. The GI50 in the assay on COLO 205 was 1.73 µM (inactive); with MCF7, 0.568 µM (active); with CAKI-1 it was 1.26 µM (inactive); in the assay on RXF 393, 0.0849 µM (active); with OVCAR-3 it was 0.594 µM (active); in the assay on RPMI-8226, 0.292 µM (active).
As for `O=C1N[C@@H]([C@H](CCCCCO)OC(=O)c2ccccc2)CO1`, the GI50 in the assay on KM12, in the assay with SN12C, with UACC-62, in the assay on HCT-116, with A498 and in the assay with UO-31 was > 100 µM (inactive) each time. Further, the GI50 in the assay with ACHN is > 100 µM (inactive); in the assay with HL-60 it was > 100 µM (inactive); in the assay with HCT-15, greater than 100 µM; in the assay with SK-MEL-5, > 100 µM (inactive); with MOLT-4, > 100 µM (inactive); in the assay on COLO 205, > 10 µM (inactive). The GI50 with MCF7, with CAKI-1, in the assay on RXF 393, with OVCAR-3 and in the assay on RPMI-8226 was > 100 µM (inactive) in each case.
As for `CC(=O)O[C@H]1[C@@H](OC(C)=O)C(C)(C)/C=C/[C@H](C)C(=O)[C@@]2(OC(C)=O)C[C@@](C)(OC(C)=O)[C@H](OC(C)=O)[C@@H]2[C@H]2OC(=O)CC[C@@]2(OC(=O)c2ccccc2)[C@@H]1OCC(C)C`, the GI50 is 39.1 µM (inactive) in the assay on KM12; > 100 µM (inactive) in the assay with SN12C; 46.5 µM (inactive) in the assay on UACC-62; 19.5 µM (inactive) in the assay with HCT-116; 22.2 µM (inactive) in the assay with UO-31; 15.6 µM (inactive) in the assay with ACHN. In addition, the GI50 in the assay with HL-60 is 4.11 µM (inactive); with HCT-15 it was greater than 100 µM; in the assay on SF-268, > 100 µM (inactive); in the assay with SK-MEL-5, 33.5 µM (inactive); in the assay on MOLT-4 it was 4.76 µM (inactive); in the assay on COLO 205, 5.15 µM (inactive). Moreover, the GI50 was 32.4 µM (inactive) in the assay on NCI-H522; 37 µM (inactive) in the assay with MCF7; 8.73 µM (inactive) with CAKI-1; 19.5 µM (inactive) in the assay with HCC 2998; 46.7 µM (inactive) in the assay on RXF 393; > 100 µM (inactive) with OVCAR-3.
With `Nc1c(C(=O)Nc2ccc(C3=NCCN3)cc2)cccc1C(=O)Nc1ccc(C2=NCCN2)cc1`, the GI50 in the assay on KM12 is > 100 µM (inactive); with SN12C, > 88.1 µM (inactive); in the assay with UACC-62, > 100 µM (inactive); in the assay on HCT-116, > 100 µM (inactive); in the assay on A498, > 100 µM (inactive); in the assay with UO-31, > 100 µM (inactive). Further, the GI50 is > 100 µM (inactive) with HL-60; greater than 100 µM in the assay on HCT-15; > 100 µM (inactive) in the assay with SF-268; > 100 µM (inactive) in the assay on SK-MEL-5; > 100 µM (inactive) in the assay with MOLT-4; > 100 µM (inactive) with COLO 205. Besides, the GI50 is > 65.2 µM (inactive) in the assay on NCI-H522; > 100 µM (inactive) in the assay with MCF7; > 100 µM (inactive) with CAKI-1; > 71.6 µM (inactive) in the assay with HCC 2998; > 100 µM (inactive) in the assay on RXF 393; > 100 µM (inactive) with OVCAR-3. Also, in the assay on RPMI-8226, the GI50 is > 100 µM (inactive).
Consider `CN(c1ccccc1)c1c(-c2ccccc2)c(=O)oc2c1ccc1occc12`, for which the GI50 with KM12, in the assay on SN12C, in the assay with UACC-62, with HCT-116, in the assay with A498 and in the assay with UO-31 was > 100 µM (inactive) in each case. The GI50 in the assay on HL-60 is 39.7 µM (inactive); in the assay with HCT-15, greater than 88.5 µM; in the assay with SF-268, > 100 µM (inactive); in the assay on SK-MEL-5 it was > 100 µM (inactive); in the assay with MOLT-4 it was 22.2 µM (inactive); with COLO 205, > 100 µM (inactive). The GI50 in the assay with NCI-H522 was > 100 µM (inactive); in the assay on MCF7 it was > 100 µM (inactive); in the assay with CAKI-1 it was 36.2 µM (inactive); with HCC 2998, > 100 µM (inactive); with RXF 393, > 92.3 µM (inactive); in the assay with OVCAR-3 it was > 100 µM (inactive).
Consider `COc1cc2c(cc1Oc1c(Oc3c(O)c(OC)cc4c3C(CC(C)C)N(C)CC4)c(OC)cc3c1C(CC(C)C)N(C)CC3)C(CC(C)C)N(C)CC2` (stereo not given), for which the GI50 in the assay with KM12 is 0.721 µM (active); in the assay with SN12C it was 0.577 µM (active); in the assay with UACC-62 it was 0.573 µM (active); with HCT-116 it was 0.643 µM (active); with A498, 0.152 µM (active); in the assay with UO-31, 3.95 µM (inactive). Also, the GI50 is 3.03 µM (inactive) in the assay on HL-60; 1.81 µM in the assay on HCT-15; 1.51 µM (inactive) in the assay on SF-268; 0.375 µM (active) with SK-MEL-5; 1.03 µM (active) with MOLT-4; 0.351 µM (active) with COLO 205. The GI50 with NCI-H522 was 0.458 µM (active); in the assay with MCF7, 0.632 µM (active); in the assay with CAKI-1, 0.575 µM (active); in the assay on HCC 2998, 0.92 µM (active); in the assay with RXF 393, 0.495 µM (active); in the assay with OVCAR-3 it was 1.12 µM (inactive). Also, the GI50 in the assay on RPMI-8226 is 2.34 µM (inactive).
For `Cc1cc2nc3c(C)c4ccccc4c(C)n3c2cc1C`, the GI50 with KM12 was 3.34 µM (inactive); in the assay with SN12C, 2.07 µM (inactive); in the assay on UACC-62, 4.14 µM (inactive); in the assay with HCT-116 it was 1.01 µM (active); with ACHN, 1.67 µM (inactive); with HL-60 it was 3.22 µM (inactive). In addition, the GI50 is 1.97 µM with HCT-15; 3.85 µM (inactive) with SF-268; 2.26 µM (inactive) in the assay with SK-MEL-5; 2.39 µM (inactive) in the assay on MOLT-4; 2.15 µM (inactive) in the assay on COLO 205; 2.51 µM (inactive) with NCI-H522. Besides, the GI50 in the assay on MCF7 is 1.49 µM (inactive); in the assay on CAKI-1, 2.94 µM (inactive); with HCC 2998, 3.33 µM (inactive); in the assay on RXF 393, 2.84 µM (inactive); in the assay with OVCAR-3, 1.95 µM (inactive); in the assay with RPMI-8226 it was 3.21 µM (inactive).
In the case of `O=C1CC2(CCC(O)(c3ccco3)C(C(=O)c3ccco3)C2)C(=O)c2ccccc2N1` (stereo not given), the GI50 in the assay on SN12C is > 100 µM (inactive); in the assay with UACC-62 it was > 100 µM (inactive); in the assay on HCT-116, 88.7 µM (inactive); in the assay with A498 it was > 100 µM (inactive); with UO-31, 24.7 µM (inactive); in the assay with HL-60, 27.3 µM (inactive). The GI50 with HCT-15 was 53.8 µM; in the assay with SF-268, > 100 µM (inactive); with SK-MEL-5, 51.4 µM (inactive); with COLO 205, > 100 µM (inactive); in the assay with MCF7, > 100 µM (inactive); with CAKI-1, > 100 µM (inactive). Further, the values for the GI50 in the assay with HCC 2998, in the assay with RXF 393 and in the assay with OVCAR-3 were 55.8 µM (inactive), > 100 µM (inactive) and 84.7 µM (inactive), respectively.
In the case of `CC[C@]1(c2ccc3c(c2)OCO3)C=[N+]([O-])O[C@H](OC2CCCC2(c2ccccc2)c2ccccc2)[C@@H]1OC(C)=O` (stereo not given in full), the GI50 in the assay with KM12 is 1.77 µM (inactive); in the assay with SN12C, 3.15 µM (inactive); in the assay with UACC-62, 1.95 µM (inactive); in the assay with HCT-116, 1.78 µM (inactive); in the assay on A498, 1.27 µM (inactive); in the assay with UO-31, 2.05 µM (inactive). In addition, the GI50 in the assay with ACHN is 2.81 µM (inactive); in the assay with HL-60, 2.87 µM (inactive); in the assay with HCT-15, 2.26 µM; with SF-268, 2.4 µM (inactive); with SK-MEL-5 it was 1.56 µM (inactive); in the assay on MOLT-4, 2 µM (inactive). The GI50 is 2.23 µM (inactive) in the assay on COLO 205; 1.77 µM (inactive) in the assay with NCI-H522; 2.47 µM (inactive) in the assay with MCF7; 3.42 µM (inactive) in the assay with CAKI-1; 1.85 µM (inactive) with HCC 2998; 1.27 µM (inactive) with RXF 393. The GI50 in the assay with OVCAR-3 is 1.81 µM (inactive).
